# Counter-ions that a name gives are not always drawn.
# How the values were obtained:
# Type in all cases: biochemical
# recombinant PRL-1 = target: T1, recombinant PRL-1 (Homo sapiens, UniProt Q93096); experiment: In vitro phosphatase assay (DiFMUP hydrolysis), PRL-1; conditions: for % Phosphatase Activity (compared to DMSO) PRL-1: FDA-approved drug screen
# T1 construct: 6xHis (N, cleaved yes); made in house; host or cells: E. coli One Shot BL21 Star
# T1 sequence (Q93096 1-173): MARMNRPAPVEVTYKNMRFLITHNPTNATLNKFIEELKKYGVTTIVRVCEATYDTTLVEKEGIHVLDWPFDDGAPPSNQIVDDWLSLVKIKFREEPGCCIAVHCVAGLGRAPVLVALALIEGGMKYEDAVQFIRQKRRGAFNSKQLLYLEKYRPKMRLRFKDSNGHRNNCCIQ
# recombinant PRL-2 = target: T2, recombinant PRL-2 (Homo sapiens, UniProt Q12974); experiment: In vitro phosphatase assay (DiFMUP hydrolysis), PRL-2; conditions: for % Phosphatase Activity (compared to DMSO) PRL-2: FDA-approved drug screen;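 as to all read-outs here: PRL-2 activity read as DiFMUP hydrolysis after 20 min at room temperature with drug, enzyme first pre-reduced at 4 °C for 20 min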
# T2 construct: 6xHis (N, cleaved yes); made in house; host or cells: E. coli One Shot BL21 Star
# T2 sequence (Q12974 1-167): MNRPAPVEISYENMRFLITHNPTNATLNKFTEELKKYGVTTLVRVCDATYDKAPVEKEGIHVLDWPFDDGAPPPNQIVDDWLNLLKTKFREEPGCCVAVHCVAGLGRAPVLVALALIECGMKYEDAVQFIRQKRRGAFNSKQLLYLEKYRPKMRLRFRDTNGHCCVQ
# recombinant PRL-3 = target: T3, recombinant PRL-3 (Homo sapiens, UniProt O75365); experiment: In vitro phosphatase assay (DiFMUP hydrolysis), PRL-3; conditions: for % Phosphatase Activity (compared to DMSO) PRL-3: FDA-approved drug screen
# T3 construct: 6xHis (N, cleaved yes); made in house; host or cells: E. coli One Shot BL21 Star
# T3 sequence (O75365 whole entry): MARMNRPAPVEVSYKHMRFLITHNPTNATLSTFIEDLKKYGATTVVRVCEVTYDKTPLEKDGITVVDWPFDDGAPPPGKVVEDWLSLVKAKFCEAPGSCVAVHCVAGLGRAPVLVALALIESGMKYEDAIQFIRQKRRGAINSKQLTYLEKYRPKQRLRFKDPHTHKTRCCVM
Compound,% Phosphatase Activity (compared to DMSO) PRL-1 (recombinant PRL-1; compared to DMSO),% Phosphatase Activity (compared to DMSO) PRL-2 (recombinant PRL-2; compared to DMSO),% Phosphatase Activity (compared to DMSO) PRL-3 (recombinant PRL-3; compared to DMSO),further results
C=CC[C@@H]1/C=C(\C)C[C@H](C)C[C@H](OC)[C@H]2O[C@@](O)(C(=O)C(=O)N3CCCC[C@H]3C(=O)O[C@H](/C(C)=C/[C@@H]3CC[C@@H](O)[C@H](OC)C3)[C@H](C)[C@@H](O)CC1=O)[C@H](C)C[C@@H]2OC [Tacrolimus (FK506)],,,,% Phosphatase Activity (compared to DMSO) PRL-1 (recombinant PRL-1; activity compared to DMSO): 90%; % Phosphatase Activity (compared to DMSO) PRL-2 (recombinant PRL-2; activity compared to DMSO): 78%; % Phosphatase Activity (compared to DMSO) PRL-3 (recombinant PRL-3; activity compared to DMSO): 94%
O=C1c2ccccc2C(=O)C1c1ccccc1 [Phenindione],93%,100%,84%,
Cc1cccc(-c2nn3c(c2-c2ccnc4ccc(C(N)=O)cc24)CCC3)n1 [LY2157299],111%,130%,115%,
"CCCCCCCCCCCC1=C(O)C(=O)C=C(O)C1=O [Embelin, reference compound]",40%,58%,28%,"IC50 (recombinant PRL-1; 2.5 µM protein, DiFMUP at KM, read-out: Calculated IC50, PRL-1 phosphatase activity): 114 ± 16 µM; IC50 (recombinant PRL-2; 2.5 µM protein, DiFMUP at KM, read-out: Calculated IC50, PRL-2 phosphatase activity): 124 ± 60 µM; IC50 (recombinant PRL-3; 2.5 µM protein, DiFMUP at KM, read-out: Calculated IC50, PRL-3 phosphatase activity): 52 ± 9 µM"
CN1CCCC(n2nc(Cc3ccc(Cl)cc3)c3ccccc3c2=O)CC1 (stereo not drawn) [Azelastine HCl],121%,113%,87%,
Nc1ccc(/N=N/c2ccccc2)c(N)n1 [Phenazopyridine HCl],64%,61%,55%,
CC(=O)OCC[N+](C)(C)C [Acetylcholine Chloride],87%,97%,95%,
COc1cccc2c1C(=O)c1c(O)c3c(c(O)c1C2=O)C[C@@](O)(C(=O)CO)C[C@@H]3O[C@H]1C[C@H](N)[C@H](O)[C@H](C)O1 [Doxorubicin (Adriamycin)],75%,74%,73%,
O=C(C1CCCCC1)N1CC(=O)N2CCc3ccccc3C2C1 (stereo not drawn) [Praziquantel],102%,88%,73%,
CC(C)[C@H](N)C(=O)OCC(CO)OCn1cnc2c(=O)nc(N)[nH]c21 (stereo partly drawn) [Valganciclovir HCl],,,,% Phosphatase Activity (compared to DMSO) PRL-1 (recombinant PRL-1; activity compared to DMSO): 103%; % Phosphatase Activity (compared to DMSO) PRL-2 (recombinant PRL-2; activity compared to DMSO): 97%; % Phosphatase Activity (compared to DMSO) PRL-3 (recombinant PRL-3; activity compared to DMSO): 75%
O=c1cc[nH]c(=O)[nH]1 [Uracil],,,,% Phosphatase Activity (compared to DMSO) PRL-1 (recombinant PRL-1; activity compared to DMSO): 100%; % Phosphatase Activity (compared to DMSO) PRL-2 (recombinant PRL-2; activity compared to DMSO): 93%; % Phosphatase Activity (compared to DMSO) PRL-3 (recombinant PRL-3; activity compared to DMSO): 69%
O=C1c2cccc(O)c2C(=O)c2c(O)cccc21 [Danthron],96%,96%,78%,
COc1cc2nccc(Oc3ccc(NC(=O)Nc4cc(C)on4)c(Cl)c3)c2cc1OC [Tivozanib (AV-951)],,,,% Phosphatase Activity (compared to DMSO) PRL-1 (recombinant PRL-1; activity compared to DMSO): 107%; % Phosphatase Activity (compared to DMSO) PRL-2 (recombinant PRL-2; activity compared to DMSO): 101%; % Phosphatase Activity (compared to DMSO) PRL-3 (recombinant PRL-3; activity compared to DMSO): 75%
CCCCOc1ccc(CC(=O)NO)cc1 [Bufexamac],117%,110%,91%,
CC(=O)O[C@H]1C[C@@H]2CC[C@@H]3[C@H](CC[C@@]4(C)[C@H]3C[C@H]([N+]3(C)CCCCC3)[C@@H]4OC(C)=O)[C@@]2(C)C[C@@H]1N1CCCCC1 [Vecuronium Bromide],,,,% Phosphatase Activity (compared to DMSO) PRL-1 (recombinant PRL-1; activity compared to DMSO): 103%; % Phosphatase Activity (compared to DMSO) PRL-2 (recombinant PRL-2; activity compared to DMSO): 100%; % Phosphatase Activity (compared to DMSO) PRL-3 (recombinant PRL-3; activity compared to DMSO): 87%
CC(=O)NS(=O)(=O)c1ccc(N)cc1 [Sulfacetamide Sodium],,,,% Phosphatase Activity (compared to DMSO) PRL-1 (recombinant PRL-1; activity compared to DMSO): 91%; % Phosphatase Activity (compared to DMSO) PRL-2 (recombinant PRL-2; activity compared to DMSO): 109%; % Phosphatase Activity (compared to DMSO) PRL-3 (recombinant PRL-3; activity compared to DMSO): 74%
CCOC(=O)[C@H](CCc1ccccc1)N[C@@H](C)C(=O)N1C(=O)N(C)C[C@H]1C(=O)O [Imidapril HCl],105%,95%,76%,
CC[C@]1(O)C[C@@H]2CN(CCc3c([nH]c4ccccc34)[C@@](C(=O)OC)(c3cc4c(cc3OC)N(C)[C@H]3[C@@](O)(C(=O)OC)[C@H](OC(C)=O)[C@]5(CC)C=CCN6CC[C@]43[C@@H]65)C2)C1 [Vinblastine sulfate],,,,% Phosphatase Activity (compared to DMSO) PRL-1 (recombinant PRL-1; activity compared to DMSO): 92%; % Phosphatase Activity (compared to DMSO) PRL-2 (recombinant PRL-2; activity compared to DMSO): 95%; % Phosphatase Activity (compared to DMSO) PRL-3 (recombinant PRL-3; activity compared to DMSO): 91%
CC(=O)O[C@H]1C(=O)[C@@]2(C)[C@H]([C@H](OC(=O)c3ccccc3)[C@]3(O)C[C@H](OC(=O)[C@H](O)[C@@H](NC(=O)c4ccccc4)c4ccccc4)C(C)=C1C3(C)C)[C@]1(OC(C)=O)CO[C@@H]1C[C@@H]2O [Paclitaxel],94%,97%,76%,
C#C[C@]1(O)CC[C@H]2[C@@H]3CCC4=CC(=O)CC[C@@H]4[C@H]3CC[C@@]21CC [Levonorgestrel],94%,101%,78%,
Nc1ccc(S(=O)(=O)Nc2nccs2)cc1 [Sulfathiazole],,,,% Phosphatase Activity (compared to DMSO) PRL-1 (recombinant PRL-1; activity compared to DMSO): 119%; % Phosphatase Activity (compared to DMSO) PRL-2 (recombinant PRL-2; activity compared to DMSO): 114%; % Phosphatase Activity (compared to DMSO) PRL-3 (recombinant PRL-3; activity compared to DMSO): 87%
Nc1nnc(-c2cccc(Cl)c2Cl)c(N)n1 [Lamotrigine],121%,110%,83%,
CN1CCN(c2ccc(C(=O)Nc3n[nH]c4ccc(Cc5cc(F)cc(F)c5)cc34)c(NC3CCOCC3)c2)CC1 [Entrectinib (RXDX-101)],344%,282%,180%,
CCOC(=O)CCC(=O)O[C@H]1[C@H](O[C@@H]2[C@@H](C)[C@H](O[C@H]3C[C@@](C)(OC)[C@@H](O)[C@H](C)O3)[C@@H](C)C(=O)O[C@H](CC)[C@@](C)(O)[C@H](O)[C@@H](C)C(=O)[C@H](C)C[C@@]2(C)O)O[C@H](C)C[C@@H]1N(C)C [Erythromycin Ethylsuccinate],85%,82%,71%,
C[C@@H](O)[C@@H]1NC(=O)[C@H](CCCCN)NC(=O)[C@@H](Cc2c[nH]c3ccccc23)NC(=O)[C@H](Cc2ccccc2)NC(=O)[C@@H](NC(=O)[C@H](N)Cc2ccccc2)CSSC[C@@H](C(=O)N[C@H](CO)[C@@H](C)O)NC1=O [Octreotide Acetate],99%,90%,93%,
COc1ccc(CC2c3cc(OC)c(OC)cc3CC[N+]2(C)CCC(=O)OCCCCCOC(=O)CC[N+]2(C)CCc3cc(OC)c(OC)cc3C2Cc2ccc(OC)c(OC)c2)cc1OC (stereo not drawn) [Atracurium Besylate],99%,101%,101%,
"COc1ccc(C(=O)c2ccccc2O)c(O)c1 [2,2′-Dihydroxy-4-methoxybenzophenone]",90%,107%,79%,
O=C([O-])c1cc(=O)c2c(OCC(O)COc3cccc4oc(C(=O)[O-])cc(=O)c34)cccc2o1.[Na+].[Na+] [Disodium Cromoglycate],93%,78%,93%,
Clc1ccc2c(c1)C(N1CCNCC1)=Nc1ccccc1O2 [Amoxapine],109%,118%,88%,
